From PubChem BioAssay (NCI)
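Values below derive from 48-hour exposures of cells grown in 96-well plates, with endpoints linearly interpolated between the two concentrations bracketing the appropriate inhibition level. At the TGI there is no net growth.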

Key:
Test in all cases: DTP human tumour cell line panel, 48 h
[1] = system: NCI-H460 lung
[2] = system: NCI-H522 lung
[3] = system: UACC-62 melanoma
[4] = system: MALME-3M melanoma
[5] = system: HCT-15 colon
[6] = system: UACC-257 melanoma
[7] = system: K-562 leukemia
[8] = system: NCI-H226 lung
[9] = system: SW-620 colon
[10] = system: SK-MEL-2 melanoma
[11] = system: KM12 colon
[12] = system: SNB-75 CNS
[13] = system: SN12C renal
[14] = system: SK-MEL-5 melanoma
[15] = system: U251 CNS
[16] = system: SNB-19 CNS
[17] = system: DMS 273 small cell lung
[18] = system: NCI-H23 lung
[19] = system: SK-OV-3 ovarian
[20] = system: HOP-18 NSCLC
[21] = system: IGROV1 ovarian
[22] = system: HCC-2998 colon
[23] = system: CCRF-CEM leukemia
[24] = system: OVCAR-3 ovarian
[25] = system: CAKI-1 renal
[26] = system: LXFL 529 NSCLC
[27] = system: KM20L2 colon
[28] = system: M14 melanoma
[29] = system: DLD-1 colon
[30] = system: SNB-78 CNS
[31] = system: RXF 393 renal
[32] = system: A498 renal
[33] = system: UO-31 renal
[34] = system: 786-0 renal
[35] = system: EKVX NSCLC
[36] = system: OVCAR-4 ovarian
[37] = system: HCT-116 colon
[38] = system: SK-MEL-28 melanoma
[39] = system: MOLT-4 leukemia
[40] = system: A549 NSCLC
[41] = system: SR leukemia
[42] = system: SF-295 CNS
[43] = system: HL-60(TB) leukemia
[44] = system: COLO 205 colon
[45] = system: OVCAR-5 ovarian
[46] = system: SF-539 CNS
[47] = system: SF-268 CNS
[48] = system: RXF-631 renal
[49] = system: TK-10 renal
[50] = system: HOP-62 NSCLC
[51] = system: OVCAR-8 ovarian
[52] = system: M19-MEL melanoma
[53] = system: XF 498 CNS
[54] = system: LOX IMVI melanoma
[55] = system: HT29 colon
[56] = system: ACHN renal
[57] = system: RPMI-8226 leukemia
[58] = system: DMS 114 small cell lung
[59] = system: HOP-92 NSCLC

Measured: TGI

O=C(/C=C/c1ccccc1O)c1cccs1
45.5 µM: [32]
not listed: [57] | [58] | [59]
> 100 µM: all other assays above

NC(N)=NS(=O)(=O)c1ccc(NC(=O)c2cccc3c(Nc4ccc(S(=O)(=O)N=C(N)N)cc4)c4ccccc4nc23)cc1
81.5 µM: [12]
not listed: [8] | [22] | [25] | [41]
> 100 µM: all other assays above
